PMC6010047, “Design, synthesis and biological evaluation of novel hydroxy-phenyl-1H-benzimidazoles as radical scavengers and UV-protective agents” (Journal of Enzyme Inhibition and Medicinal Chemistry, 2017)
Entries after “also recorded” stand apart in the source; their conditions may differ.

Experiments:
[1] = 1,1-Diphenyl-2-picryl-hydrazyl radical (DPPH) assay; format: biochemical; conditions: Trolox equivalents; mean ± SE of three experiments
Description: To 1.5 mL DPPH methanolic solution (0.5 mM) was added 0.750 mL of sample solution proper diluted. Samples absorbance measurements were evaluated with a UV-VIS spectrophotometer (Thermo Spectronic Helios γ, Cambridge, UK) at fixed wavelength of 517 nm. Blank sample was prepared adding methanol to DPPH solution and Trolox was used as standard reference to achieve a calibration curve. The radical-scavenging activity is expressed as inhibition ratio of initial concentration of DPPH radical and is calculated according to the formula: Inhibition percentage (Ip) = [(AB-As)/AB]·100; where AB and As are, respectively, the absorbance values of blank reaction and of the tested sample[25].

[2] = Ferric reducing antioxidant of potency (FRAP) assay; format: biochemical; conditions: Trolox equivalents; mean ± SE of three experiments
Description: The ferric reducing ability of each standard solution was measured according to a modified protocol described by Guihua et al.[26]. The reagent for analysis was freshly prepared by mixing the following solutions in the reported ratio 10/1/1 (v:v:v) (i) 0.1 M acetate buffer pH 3.6, (ii) TPTZ (2,4,6-Tri(2-pyridyl)-s-triazine) 10 mmol/L in 40 mmol/HCl, (iii) ferric chloride 20 mmol/L. To a 1.9 mL of reagent were added 0.1 mL of sample proper diluted or solvent when blank was performed. Readings at fixed wavelength of the absorption maximum (593 nm) were done after 30 min, using a UV-VIS spectrophotometer; it was evaluated the absorbance increase of sample solution against the absorbance of blank reaction as parameter to calculate the antioxidant activity. The antioxidant activity is given as Trolox activity since this standard was used to perform the calibration curves.

[3] = Photochemiluminescence (PCL) method, ACL kit; format: biochemical; conditions: pure compound; Trolox equivalents; mean ± SE of three experiments
Description: PCL assay, based on the methodology of Popov and Lewin[23], was used to measure the antioxidant activity of synthesized compounds with a Photochem® apparatus (Analytik Jena, Leipzig, Germany) against superoxide anion radicals generated from luminol, a photosensitizer, when exposed to UV light (Double Bore® phosphor lamp, output 351 nm, 3 mWatt/cm^2). The antioxidant activity was measured using ACL (Antioxidant Capacity of Liposoluble substance) kit provided by the manufacturer designed to measure the antioxidant activity of lipophilic compounds[24]. […] The areas under the curves were calculated using the PCLsoft control and analysis software. […] This inhibition was used as a parameter for quantification and related to the decrease in the integral of PCL intensities caused by varying concentrations of Trolox. The observed inhibition of the signal was plotted against the concentration of Trolox added to the assay medium. The concentration of the added tested compounds was such that the generated luminescence during the 180-s sampling interval fell within the limits of the standard curve. The antioxidant assay was carried out in triplicate for each sample, and 20 μL of the diluted compound in HPLC-grade methanol (ACL) was sufficient to correspond to the standard curve.

[4] = In vitro evaluation of filtering parameters of formulations on PMMA plates (Diffey and Robson); conditions: for SPF / UVA/UVB / UVAPF / λc (critical wavelength): 3% (w/w) in O/W formulation, PMMA plates
Description: It was decided to use a standard formulation oil in water (O/W).
In vitro approaches consist in applying a thin film of sunscreen product on an artificial substrate and test, via spectrophotometric measures, the amount of UV radiation passing through the film. Several different artificial substrates are available for this type of analysis; the substrate should be as closed as possible to the physical characteristics of the skin. Among the substrates available for these purposes, the substrate used in this study to analyse the sunscreen products were PMMA plates. This substrate is easily handled and can be supplied with a reproducible roughness. WW5 PMMA plates have been purchased from Schonberg GmbH (Munich, Germany). The plates, used in this study, have an area of 25 cm^2 and standardized […] roughness. Transmittance and absorbance measurements were carried out by a SHIMAZDU UV-2600 provided of integrating sphere ISR 2600 60 mm and coupled with a SPF determination software and a PMMA plate with approximately 15 μL of glycerin served as reference.
In order to evaluate possible activity as sun filters and antioxidants, suitable in the development of novel class of dualistic sunscreens, the synthesized molecules were included at the concentration of 3% (w/w) in a topical formulation. To this end standard oil in water (O/W) formulation was devised, taking into account the absence of any UV filtering and/or antioxidant molecule, in order to obtain a reference formulation. It was not possible to analyze compound 7 in the formulation because of high instability (phase separation induced by 7). Formulations containing the active ingredients were tested for their SPF efficacy by the in vitro method derived from Diffey and Robson[32], in comparison with the same formulation containing the reference PBSA.
This method is based on the measure of spectral transmission of ultraviolet radiation, with and without the sunscreen applied, through an irregular substrate that simulates the skin surface and permits transmission of UV radiation. Although with some limitation, the test is used to predict SPF in vivo and to screen the filtering activity of new molecules that cannot be tested by in vivo because of lacking of more data concerning safety. The critical wavelength (λc) for the test product is defined as that wavelength where the area under the absorbance spectrum for the irradiated product from 290 nm to λc is 90% of the integral of the absorbance spectrum from 290 nm to 400 nm. Critical wavelength value of greater than 370 nm is necessary, in order to satisfy requirements for broad-spectrum UVB/UVA protection and associated labeling. Polymethylmethacrylate plates (PMMA) with a specific roughness were a satisfactory substrate for this method, because they are UV-transparent, nonfluorescent, photostable and inert to all potential sunscreen formulation ingredients. Table 3 lists the data obtained for the model formulation containing the synthesized compounds. These parameters are necessary to evaluate whether a sunscreen fulfills the requirements for efficacy, and they are SPF, UVA protection factor (UVAPF), UVA/UVB ratio and critical wavelength.
A set of model formulations was prepared: an oil-in-water emulsion (O/W), without sunscreen molecules (Ref. A, Figure 5), prepared as reference formulation; two formulations containing PBSA or oxisol (12) at 3% were prepared (Ref. C and B, respectively, Figure 5), in order to evaluate the filter properties of oxisol (12). Moreover, as stated earlier, SPF booster properties were assayed on other four formulations including a mix of filters with a theoretical SPF value of 15 and 30, adding 3% of oxisol (12) or PBSA (Ref. E, F, G, H, Figure 5). […]

[5] = Cytotoxicity, MTT test, 72 h; conditions: human, NCTC-2544 keratinocytes (immortalized, nontumorigenic)
Description: An immortalized, nontumorigenic cell line of human keratinocytes (NCTC-2544) was grown in a DMEM medium (Sigma-Aldrich Milan, Italy), supplemented with 115 units/mL of penicillin G, 115 μg/mL streptomycin, and 10% fetal calf serum (Invitrogen, Milan, Italy). Individual wells of a 96-well tissue culture microtiter plates (Falcon, Becton–Dickinson) were inoculated with 100 μL of complete medium containing 5 × 10^3 NCTC-2544. The plates were incubated at 37 °C in a humidified (5% CO2) incubator for 18 h prior to the experiments.
After medium removal, 100 μL of the drug solution, dissolved in DMSO and diluted in DMEM medium, was added to each well, incubated at 37 °C for 72 h. Final DMSO concentration never exceeded 0.5%. Cell viability was assayed by the MTT (3–(4,5-dimethylthiazol-2-yl)-2,5 diphenyl tetrazolium bromide) test as previously described by Mosmann[27].
The tests were conducted using a specific cell line of human keratinocytes (NCTC-2544). To assess cell viability, in the presence of the study compounds, before and after the irradiation, the MTT assay was performed[27]. The cytotoxicity was checked after 72 h from the incubation of the keratinocytes with compounds; moreover, the same experiments were performed in the presence of the parent PBSA.

Compound | DPPH [1] | FRAP [2] [μmolTrolox/mmol] | PCL [3] | SPF [4] | UVA/UVB [4] | UVAPF [4] | λc (critical wavelength) [4] [nm] | IC50 at 72 h [5] [µM] | SPF of emulsion (Figure 5) ([4]; O/W emulsion with 3% of the molecule only)
2-(2,4-Dihydroxy-phenyl)-1H-benzimidazole [Compound 9] | 16.47 ± 0.54 μmolTrolox/mmol | 37.3 ± 0.35 | 198.53 ± 2.65 μmolTrolox/mmol | 3.57 ± 0.23 | 1.10 ± 0.05 | 1.89 ± 0.05 | 380 |  | 
2-(2-Hydroxy-phenyl)-1H-benzimidazole [Compound 10] | 0.87 ± 0.05 μmolTrolox/mmol | 23.04 ± 0.09 | 10.93 ± 0.05 μmolTrolox/mmol | 1.96 ± 0.14 | 1.01 ± 0.02 | 1.06 ± 0.08 | 378 |  | 
O=S(=O)(O)c1ccc2[nH]c(-c3ccc(O)cc3)nc2c1 [Compound 2, 2-(4-Hydroxy-phenyl)-1H-benzimidazole-5-sulfonic acid] | 2.04 ± 0.15 μmolTrolox/mmol | 12.23 ± 0.25 | 11.36 ± 0.08 μmolTrolox/mmol | 4.74 ± 0.15 | 0.51 ± 0.01 | 1.36 ± 0.07 | 346 | 26.4 ± 2.7 | 
O=S(=O)(O)c1ccc2[nH]c(-c3ccc(O)c(O)c3)nc2c1 [Compound 3, 2-(3,4-Dihydroxy-phenyl)-1H-benzimidazole-5-sulfonic acid] | 2145.31 ± 45.8 μmolTrolox/mmol | 2707.29 ± 29.52 | 22,838 ± 836,26 μmolTrolox/mmol | 9.83 ± 0.64 | 0.74 ± 0.04 | 3.63 ± 0.23 | 358 | > 50 | 
O=S(=O)(O)c1ccc2[nH]c(-c3ccccc3O)nc2c1 [Compound 4, 2-(2-Hydroxy-phenyl)-1H-benzimidazole-5-sulfonic acid] | 2.03 ± 0.09 μmolTrolox/mmol | 16.22 ± 0.89 | 2.06 ± 0.05 μmolTrolox/mmol | 2.22 ± 0.13 | 0.96 ± 0.01 | 1.06 ± 0.07 | 355 | > 50 | 
O=S(=O)(O)c1ccc2[nH]c(-c3ccc(O)cc3O)nc2c1 [Compound 5, 2-(2,4-Dihydroxy-phenyl)-1H-benzimidazole-5-sulfonic acid] | 21.41 ± 043 μmolTrolox/mmol | 19.87 ± 0.22 | 159.1 ± 4.3 μmolTrolox/mmol | 2.18 ± 0.14 | 1.13 ± 0.01 | 1.21 ± 0.04 | 370 | > 50 | 
O=S(=O)(O)c1ccc2[nH]c(-c3ccc(O)c(O)c3O)nc2c1 [Compound 6, 2-(2,3,4-Trihydroxy-phenyl)-1H-benzimidazole-5-sulfonic acid] | 1362.12 ± 133.96 μmolTrolox/mmol | 2713.3 ± 45.17 | 1924.35 ± 101.82 μmolTrolox/mmol | 5.99 ± 0.12 | 0.89 ± 0.03 | 2.72 ± 0.08 | 383 | 23.1 ± 2.9 | 
Oc1ccc(-c2nc3ccccc3[nH]2)cc1O [Compound 8, 2-(3,4-Dihydroxy-phenyl)-1H-benzimidazole] | 1974.58 ± 16.89 μmolTrolox/mmol | 2663.21 ± 32.53 | 19190.6 ± 443.18 μmolTrolox/mmol | 5.20 ± 0.20 | 0.78 ± 0.02 | 1.90 ± 0.09 | 368 | > 50 | 
Oc1ccc(-c2nc3ccccc3[nH]2)c(O)c1O [Compound 11, 2-(2,3,4-Trihydroxy-phenyl)-1H-benzimidazole] | 1811.02 ± 61.7 μmolTrolox/mmol | 2723.19 ± 35.74 | 1614.675 ± 19.95 μmolTrolox/mmol | 2.85 ± 0.22 | 0.90 ± 0.01 | 1.35 ± 0.1 | 381 | > 50 | 
O=C(O)c1ccc2[nH]c(-c3ccc(O)c(O)c3)nc2c1 [Compound 12, 2-(3,4-Dihydroxy-phenyl)-1H-benzimidazole-5-carboxylic acid] | 1771.82 ± 84.75 μmolTrolox/mmol | 2433.28 ± 21.74 | 13174.31 ± 240.68 μmolTrolox/mmol | 2.21 ± 0.17 | 1.00 ± 0.04 | 1.88 ± 0.12 | 370 | > 50 | does not present an appreciable value of SPF
O=C(O)c1ccc2[nH]c(-c3ccc(O)cc3O)nc2c1 [Compound 13, 2-(2,4-Dihydroxy-phenyl)-1H-benzimidazole-5-carboxylic acid] | 32.48 ± 2.38 μmolTrolox/mmol | 31.63 ± 1.96 | 160.26 ± 4.09 μmolTrolox/mmol | 2.85 ± 0.17 | 1.27 ± 0.02 | 1.58 ± 0.10 | 368 | > 50 | 
O=C(O)c1ccc2[nH]c(-c3ccc(O)cc3)nc2c1 [Compound 14, 2-(4-Hydroxy-phenyl)-1H-benzimidazole-5-carboxylic acid] | 1.185 ± 0.02 μmolTrolox/mmol | 2.62 ± 0.06 | 6.98 ± 0.27 μmolTrolox/mmol | 6.01 ± 0.31 | 0.70 ± 0.05 | 2.04 ± 0.11 | 350 | > 50 | 
O=S(=O)(O)c1ccc2[nH]c(-c3ccccc3)nc2c1 [PBSA, 2-phenyl-1H-benzimidazole-5-sulfonic acid, reference compound] | devoided of any activity; also recorded: < LOQ^a |  | devoided of any activity; also recorded: < LOQ^a | 4.56 ± 1.09 | 0.26 ± 0.05 | 1.04 ± 0.06 | 333 | > 50 | 
